Tests used:
Assay type in all cases: biochemical
[1] = test system: thermo-stable RT (e.g., MMLV or engineered MMLV); experiment: RT-qPCR: RT tolerance to heparin (Cq delay of RT products); conditions: for Heparin tolerance: FIG. 2
Description: (§1) An RT reaction buffer was formulated so that the RT reaction can be carried out after being mixed together with thermo-stable RT (e.g., MMLV or engineered MMLV) and RNA templates (e.g., Hela RNA). […] The RT reaction was completed in a T100 Thermo Cycler (Bio-Rad Laboratories Inc. Hercules, Calif.). The RT reaction protocol was as follows: 50° C. 20 min, 95° C. 1 min, and incubation at 4° C.
(§2) After RT reaction, the RT products were used for qPCR reaction using SsoAdvanced Universal SYBR Green Supermix (Bio-Rad Laboratories Inc. Hercules, Calif.). The RT product inputs in qPCR reaction ranged from 10% to 0.1% of qPCR reaction, depending on the expression abundance of target genes. Target gene primers (Table 3) at 250 nM were used. The following protocol of qPCR was used on CFC348 Thermo Cycler (Bio-Rad Laboratories Inc. Hercules, Calif.): 95° C. denaturation for 2 min, 40 cycles of 95° C. 5S denaturation, 60° C. 30S annealing/extension/read.

[2] = test system: thermo-stable RT (e.g., MMLV or engineered MMLV); experiment: RT-qPCR: RT tolerance to other inhibitors (ethanol, guanidine hydrochloride); conditions: 7.5% Ethanol and 50 mM Guanidinum hydrochloride
Description: as §1, §2

[3] = test system: thermo-stable RT (e.g., MMLV or engineered MMLV); experiment: RT-qPCR: RT tolerance to formalin; conditions: for qPCR results from the RT products compared with the RT products without formalin: Human GAPDH
Description: (§3) An RT reaction buffer was formulated so that the RT reaction can be carried out after being mixed together with thermo-stable RT (e.g., MMLV or engineered MMLV) and RNA templates (e.g., Hela RNA). In a 20 μl RT reaction mix there is 1 u of RT enzyme, 10 u of Rnasin (Rnase inhibitor), nucleotides each at 1.5 mM (e.g., dATP, dCTP, dGTP, dTTP), random hexamer, oligo dT, or gene-specific oligo nucleotides at appropriate concentration (0.5 to 1 uM), 4% glycerol, 0.01% detergent (e.g., Tween 20), with or without RT inhibitors (e.g., Heparin, Ethanol, Guanidine Hydrochloride, Formalin, Tannic acid, etc.) or additives that improve RT reaction efficiency or sensitivity (e.g., PVSA). The RT reaction was completed in a T100 Thermo Cycler (Bio-Rad Laboratories Inc. Hercules, Calif.). The RT reaction protocol was as follows: 50° C. 20 min, 95° C. 1 min, and incubation at 4° C.
as §2, with “annealing/extension/read. After qPCR reaction, Cq values from RT products with and without inhibitors were compared, and usually Cq values were delayed (bigger values) when inhibitors were present. The larger the Cq value relative to no inhibitor RT products, the more inhibition of RT reaction observed.” for “annealing/extension/read.”
(§4) Human GAPDH target gene was detected in the qPCR reaction.

[4] = test system: thermo-stable RT (e.g., MMLV or engineered MMLV); experiment: RT-qPCR: RT tolerance to tannic acid
Description: as §3
After RT reaction, the RT products were used for qPCR reaction using SsoAdvanced Universal SYBR Green Supermix (Bio-Rad Laboratories Inc. Hercules, Calif.). The RT product inputs in qPCR reaction ranged from 10% to 0.1% of qPCR reaction, depending on the expression abundance of target genes. Target gene primers (Table 3) at 250 nM were used. […] 30S annealing/extension/read. […]
as §4

## N.N.O=S(=O)(O)O [(NH4)2SO4]
[1]
  Heparin tolerance: also improves Heparin tolerance though not as effect as K-Glu
[2]
  tolerance to other inhibitors: compromises Ethanol and GC tolerance

## C=O [Formalin]
[3]; Formalin 0.125% in RT reaction
  qPCR results from the RT products compared with the RT products without formalin: significantly delayed
[3]; formalin in RT reaction, without His-HCl
  Cq delay: about 4

## Cl.N[C@@H](Cc1c[nH]cn1)C(=O)O.O [His-HCl, histidine hydrochloride monohydrate]
[3]; Formalin 0.125% plus 15 to 20 mM His-HCl
  qPCR results from the RT products compared with the RT products without formalin: did not show a lot delay
[3]; formalin with 15 to 20 mM His-HCl present
  Cq delay: less than 1

## N[C@@H](CCC(=O)[O-])C(=O)[O-].[K+].[K+] [K-Glu, Potassium Glutamate]
[1]
  Heparin tolerance: improves Heparin tolerance
[1]; Heparin 0.003 U/μl with 100 mM K-Glu present
  Cq delay: less than 1
[1]; Heparin 0.0034 u/μl plus 100 mM potassium Glutamate in RT reaction
  qPCR from the RT products compared with the RT products without heparin: did not show much delay
[2]
  tolerance to other inhibitors: without compromising tolerance

## O=C(OC[C@H]1O[C@@H](OC(=O)c2cc(O)c(O)c(OC(=O)c3cc(O)c(O)c(O)c3)c2)[C@H](OC(=O)c2cc(O)c(O)c(OC(=O)c3cc(O)c(O)c(O)c3)c2)[C@@H](OC(=O)c2cc(O)c(O)c(OC(=O)c3cc(O)c(O)c(O)c3)c2)[C@@H]1OC(=O)c1cc(O)c(O)c(OC(=O)c2cc(O)c(O)c(O)c2)c1)c1cc(O)c(O)c(OC(=O)c2cc(O)c(O)c(O)c2)c1 [Tannic acid]
[4]; Tannic acid 0.1 μg/μl in the RT reaction, no Poloxamer
  Cq delay: over 13
[4]; tannic acid 0.1 μg/μl, Human GAPDH
  qPCR results from the RT products compared with the RT products without tannic acid: greatly delayed

## N[C@@H](Cc1c[nH]cn1)C(=O)O [histidine]
[3]; reaction mixtures containing formalin
  efficiency of the amplification reaction as compared to a control lacking histidine: improved the efficiency

## Heparin
[1]; Heparin 0.003 U/μl in the RT reaction, no K-Glu
  Cq delay: over 7
[1]; Heparin 0.0034 u/μl in RT reaction, GAPDH and 18S
  qPCR from the RT products compared with the RT products without heparin: greatly delayed
